Data on three molecules can be found in ChEMBL document CHEMBL1148622, “Structural insight into the stereoselective inhibition of MMP-8 by enantiomeric sulfonamide phosphonates” (J Med Chem, 2006).

Bounds are passed on as bounds.

In assay [1] the target is 72 kDa type IV collagenase (Homo sapiens, UniProt P08253). Nature of the assay: Inhibitory activity against MMP2.
Assay [2] addresses T1, Stromelysin-1 (Homo sapiens, UniProt P08254). Description: Inhibitory activity against MMP3.
Target sequence in this assay (P08254 whole entry): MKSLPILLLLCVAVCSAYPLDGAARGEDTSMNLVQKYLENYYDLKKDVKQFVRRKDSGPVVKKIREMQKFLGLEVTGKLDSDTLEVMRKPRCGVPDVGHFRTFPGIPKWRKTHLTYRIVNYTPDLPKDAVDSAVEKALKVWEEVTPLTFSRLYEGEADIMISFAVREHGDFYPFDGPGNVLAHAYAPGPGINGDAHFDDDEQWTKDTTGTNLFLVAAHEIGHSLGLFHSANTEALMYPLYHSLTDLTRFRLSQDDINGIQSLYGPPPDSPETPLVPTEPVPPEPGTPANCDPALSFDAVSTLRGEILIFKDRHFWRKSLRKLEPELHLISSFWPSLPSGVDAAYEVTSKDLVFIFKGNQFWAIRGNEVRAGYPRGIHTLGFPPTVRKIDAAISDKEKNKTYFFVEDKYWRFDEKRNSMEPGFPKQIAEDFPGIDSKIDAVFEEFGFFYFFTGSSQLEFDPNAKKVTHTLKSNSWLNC
Assay [3] has as its target T1, Stromelysin-1. Nature of the assay: Inhibitory activity against MMP3 at 0.1 mM.
Target sequence in this assay (P08254 100-477 limits assumed): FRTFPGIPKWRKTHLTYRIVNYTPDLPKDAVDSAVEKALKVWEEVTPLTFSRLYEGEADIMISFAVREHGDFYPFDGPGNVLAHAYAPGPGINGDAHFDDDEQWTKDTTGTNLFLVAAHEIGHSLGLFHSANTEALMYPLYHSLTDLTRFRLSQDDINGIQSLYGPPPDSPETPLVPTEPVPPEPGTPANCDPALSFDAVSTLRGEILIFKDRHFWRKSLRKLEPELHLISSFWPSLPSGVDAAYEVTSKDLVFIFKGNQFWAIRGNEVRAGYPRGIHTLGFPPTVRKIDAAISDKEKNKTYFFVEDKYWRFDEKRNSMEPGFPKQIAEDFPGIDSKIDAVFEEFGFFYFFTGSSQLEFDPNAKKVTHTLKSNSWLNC

Sequence of 72 kDa type IV collagenase (P08253 whole entry): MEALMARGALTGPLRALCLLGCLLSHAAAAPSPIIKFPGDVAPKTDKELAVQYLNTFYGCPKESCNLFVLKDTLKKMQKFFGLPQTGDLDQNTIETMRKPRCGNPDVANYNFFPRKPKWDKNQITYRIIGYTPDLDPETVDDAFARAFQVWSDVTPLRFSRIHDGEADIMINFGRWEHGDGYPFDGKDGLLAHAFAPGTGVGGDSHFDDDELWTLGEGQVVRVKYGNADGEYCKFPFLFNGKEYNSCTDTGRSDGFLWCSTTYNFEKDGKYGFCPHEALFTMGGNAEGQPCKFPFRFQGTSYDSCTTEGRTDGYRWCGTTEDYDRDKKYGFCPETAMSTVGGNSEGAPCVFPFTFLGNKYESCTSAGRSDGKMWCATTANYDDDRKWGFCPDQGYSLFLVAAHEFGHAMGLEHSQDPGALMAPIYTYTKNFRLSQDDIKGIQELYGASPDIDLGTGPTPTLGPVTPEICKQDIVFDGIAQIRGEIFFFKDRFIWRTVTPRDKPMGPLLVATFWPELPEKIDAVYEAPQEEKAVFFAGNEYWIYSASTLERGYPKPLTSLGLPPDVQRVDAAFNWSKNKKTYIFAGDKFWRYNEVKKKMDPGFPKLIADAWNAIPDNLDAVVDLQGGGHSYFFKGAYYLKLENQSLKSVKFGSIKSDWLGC

For `COc1ccc(-c2ccc(S(=O)(=O)N[C@@H](C(C)C)P(=O)(O)O)cc2)cc1`, the Ki (in general, a dissociation constant, usually derived from enzyme kinetics or from competition with a known ligand) in assay [1] was 5 nM; on Stromelysin-1 [2] it was 40 nM.

On to `CC(C)[C@@H](NS(=O)(=O)c1ccc(-c2ccc(Br)cc2)cc1)C(=O)NO`, for which the IC50 (in general, the concentration needed to halve the response being measured) is 3 nM in assay [1] and 8 nM on Stromelysin-1 [2].

In turn, `COc1ccc(-c2ccc(S(=O)(=O)N[C@H](C(C)C)P(=O)(O)O)cc2)cc1` displayed a Ki in assay [1] of 1200 nM. Also, the inhibition (usually the share of the control response that was lost under treatment) against Stromelysin-1 [3] was less than 15%.
